Measurements published in US8741940B2, “Microbicidal composition” (Rohm and Haas Company, priority 2005, dated 2014).
Where “and” joins values, the source holds several entries; their conditions need not be identical. Equal entries are not always repeated. Where two headings read alike, the source gives them in different places.

Assays:
Type in all cases: cell-based
Details in all cases: for Qa (concentration of MBIT producing the end point, MIC): alone where Qb = 0, otherwise in the mixture
[1] = test system: Escherichia coli (E. coli—ATCC #8739); test: Synergy test, microtiter plate high resolution MIC assay, bacterium in M9GY medium; design: Qa (First Component A) / Qb (Second Component B): unit: ppm
Method in brief: (§1)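 High-resolution microtiter MICs of BBIT or MBIT (component A) combined with a second microbicide (B), dilutions spanning 2–10,000 ppm active. E. coli ~5×10^6/mL in M9GY at 30 °C; C. albicans and A. niger 5×10^5/mL in PDB. Synergy index = Qa/QA + Qb/QB; >1 antagonism.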

[2] = test system: Aspergillus niger (A. niger—ATCC 16404); test: Synergy test, microtiter plate high resolution MIC assay, mold in PDB medium; design: Qb (Second Component B) / Qa (First Component A): unit: ppm
Method in brief: as §1

[3] = test system: Candida albicans (C. albicans—ATCC 10231); test: Synergy test, microtiter plate high resolution MIC assay, yeast in PDB medium; design: Qb (Second Component B) / Qa (First Component A): unit: ppm
Method in brief: as §1

[4] = A=MBIT, B=2-bromo-2-nitro-propane-1,3-diol (BNPD), E. coli 8739 - M9GY, 24 hours
[5] = A=MBIT, B=BBIT, E. coli 8739 - M9GY, 24 hours
[6] = A=MBIT, B=Benzalkonium chloride (Hyamine 3500), E. coli 8739 - M9GY, 24 hours
[7] = A=MBIT, B=Benzisothiazolinone (BIT), E. coli 8739 - M9GY, 24 hours
[8] = A=MBIT, B=Benzyl alcohol, E. coli 8739 - M9GY, 24 hours
[9] = A=MBIT, B=Caprylyl glycol, E. coli 8739 - M9GY, 24 hours
[10] = A=MBIT, B=Chlorphenesin, E. coli 8739 - M9GY, 24 hours
[11] = A=MBIT, B=DMDM Hydantoin (DMDMH), E. coli 8739 - M9GY, 24 hours
[12] = A=MBIT, B=dithio-2,2′-bis(N-methylbenzamide) (DTBMA), E. coli 8739 - M9GY, 24 hours
[13] = A=MBIT, B=2-bromo-2-nitro-propane-1,3-diol (BNPD), A. niger 16404 - PDB, 4 days
[14] = A=MBIT, B=BBIT, A. niger 16404 - PDB, 4 days
[15] = A=MBIT, B=Benzalkonium chloride (Hyamine 3500), A. niger 16404 - PDB, 4 days
[16] = A=MBIT, B=Benzisothiazolinone (BIT), A. niger 16404 - PDB, 7 days
[17] = A=MBIT, B=Benzyl alcohol, A. niger 16404 - PDB, 4 days
[18] = A=MBIT, B=Caprylyl glycol, A. niger 16404 - PDB, 4 days
[19] = A=MBIT, B=Chlorphenesin, A. niger 16404 - PDB, 3 days
[20] = A=MBIT, B=DMDM Hydantoin (DMDMH), A. niger 16404 - PDB, 3 days
[21] = A=MBIT, B=dithio-2,2′-bis(N-methylbenzamide) (DTBMA), A. niger 16404 - PDB, 3 days
[22] = A=MBIT, B=2-bromo-2-nitro-propane-1,3-diol (BNPD), C. albicans 10231 - PDB, 24 hours
[23] = A=MBIT, B=BBIT, C. albicans 10231 - PDB, 48 hours
[24] = A=MBIT, B=Benzalkonium chloride (Hyamine 3500), C. albicans 10231 - PDB, 24 hours
[25] = A=MBIT, B=Benzisothiazolinone (BIT), C. albicans 10231 - PDB, 48 hours
[26] = A=MBIT, B=Benzyl alcohol, C. albicans 10231 - PDB, 48 hours
[27] = A=MBIT, B=Caprylyl glycol, C. albicans 10231 - PDB, 24 hours
[28] = A=MBIT, B=Chlorphenesin, C. albicans 10231 - PDB, 72 hours
[29] = A=MBIT, B=DMDM Hydantoin (DMDMH), C. albicans 10231 - PDB, 24 hours
[30] = A=MBIT, B=dithio-2,2′-bis(N-methylbenzamide) (DTBMA), C. albicans 10231 - PDB, 24 hours
[31] = C. albicans 10231, PDB, 24 hours
[32] = C. albicans 10231, PDB, 48 hours
[33] = C. albicans 10231, PDB, 72 hours

Q: How did the “Qa (First Component A)” value [1] turn out when `Cn1sc2ccccc2c1=O` [MBIT, N-methyl-1,2-benzisothiazolin-3-one] was run?
A: 10 and 7.5

Q: And the “Qa (concentration of First Component A = MBIT at the end point)” value [1]?
A: 10

Q: And the “SI (synergy index)” value [1]?
A: 1.00

Q: What about the “Qa (First Component A)” value [1, 4] of the same molecule?
A: 10

Q: What about the “SI (synergy index)” value [1, 4] of the same molecule?
A: 1.00

Q: And the “Qa (First Component A)” value [1, 5]?
A: 10

Q: What about the “SI (synergy index)” value [1, 5] of the same molecule?
A: 1.00

Q: What about the “Qa (First Component A)” value [1, 6] of the same molecule?
A: 100

Q: And the “SI (synergy index)” value [1, 6]?
A: 1.00

Q: And the “Qa (First Component A)” value [1, 7]?
A: 10

Q: And the “SI (synergy index)” value [1, 7]?
A: 1.00

Q: And the “Qa (First Component A)” value [1, 8]?
A: 10

Q: What about the “SI (synergy index)” value [1, 8] of the same molecule?
A: 1.00

Q: And the “Qa (First Component A)” value [1, 9]?
A: 10

Q: And the “SI (synergy index)” value [1, 9]?
A: 1.00

Q: What about the “Qa (First Component A)” value [1, 10] of the same molecule?
A: 15

Q: And the “SI (synergy index)” value [1, 10]?
A: 1.00

Q: And the “Qa (First Component A)” value [1, 11]?
A: 10

Q: What about the “SI (synergy index)” value [1, 11] of the same molecule?
A: 1.00

Q: What about the “Qa (First Component A)” value [1, 12] of the same molecule?
A: 15

Q: What about the “SI (synergy index)” value [1, 12] of the same molecule?
A: 1.00

Q: And the “SI (synergy index)” value ([1]; E. coli 8739, M9GY, 24 hours)?
A: 1.00

Q: And the “Qa (concentration of MBIT producing the end point, MIC)” value ([1]; E. coli 8739, M9GY, 24 hours)?
A: 10 ppm and 15 ppm

Q: And the “SI (synergy index)” value ([1]; E. coli 8739, M9GY, 48 hours)?
A: 1.00

Q: What about the “Qa (concentration of MBIT producing the end point, MIC)” value ([1]; E. coli 8739, M9GY, 48 hours) of the same molecule?
A: 20 ppm and 15 ppm

Q: What about the “SI (synergy index)” value ([1]; E. coli 8739, M9GY, 72 hours) of the same molecule?
A: 1.00

Q: And the “Qa (concentration of MBIT producing the end point, MIC)” value ([1]; E. coli 8739, M9GY, 72 hours)?
A: 15 ppm

Q: What about the “Qa (First Component A)” value [2] of the same molecule?
A: 30 and 40

Q: And the “Qa (concentration of First Component A = MBIT at the end point)” value [2]?
A: 40

Q: What about the “SI (synergy index)” value [2] of the same molecule?
A: 1.00

Q: What about the “SI (synergy index)” value ([2]; A. niger 16404, PDB, 3 days) of the same molecule?
A: 1.00

Q: And the “Qa (concentration of MBIT producing the end point, MIC)” value ([2]; A. niger 16404, PDB, 3 days)?
A: 40 ppm and 20 ppm and 30 ppm

Q: What about the “SI (synergy index)” value ([2]; A. niger 16404, PDB, 4 days) of the same molecule?
A: 1.00

Q: And the “Qa (concentration of MBIT producing the end point, MIC)” value ([2]; A. niger 16404, PDB, 4 days)?
A: 30 ppm and 40 ppm

Q: And the “SI (synergy index)” value ([2]; A. niger 16404, PDB, 7 days)?
A: 1.00

Q: And the “Qa (concentration of MBIT producing the end point, MIC)” value ([2]; A. niger 16404, PDB, 7 days)?
A: 50 ppm and 60 ppm

Q: What about the “Qa (First Component A)” value [2, 13] of the same molecule?
A: 30

Q: And the “SI (synergy index)” value [2, 13]?
A: 1.00

Q: And the “Qa (First Component A)” value [2, 14]?
A: 40

Q: What about the “SI (synergy index)” value [2, 14] of the same molecule?
A: 1.00

Q: What about the “Qa (First Component A)” value [2, 15] of the same molecule?
A: 30

Q: And the “SI (synergy index)” value [2, 15]?
A: 1.00

Q: And the “Qa (First Component A)” value [2, 16]?
A: 50

Q: And the “SI (synergy index)” value [2, 16]?
A: 1.00

Q: What about the “Qa (First Component A)” value [2, 17] of the same molecule?
A: 50

Q: And the “SI (synergy index)” value [2, 17]?
A: 1.00

Q: And the “Qa (First Component A)” value [2, 18]?
A: 20

Q: And the “SI (synergy index)” value [2, 18]?
A: 1.00

Q: What about the “Qa (First Component A)” value [2, 19] of the same molecule?
A: 20

Q: What about the “SI (synergy index)” value [2, 19] of the same molecule?
A: 1.00

Q: What about the “Qa (First Component A)” value [2, 20] of the same molecule?
A: 40

Q: What about the “SI (synergy index)” value [2, 20] of the same molecule?
A: 1.00

Q: What about the “Qa (First Component A)” value [2, 21] of the same molecule?
A: 30

Q: And the “SI (synergy index)” value [2, 21]?
A: 1.00

Q: And the “Qa (First Component A)” value [3]?
A: 8 and 10

Q: What about the “Qa (concentration of First Component A = MBIT at the end point)” value [3] of the same molecule?
A: 7.5

Q: And the “SI (synergy index)” value [3]?
A: 1.00

Q: What about the “Qa (First Component A)” value [3, 22] of the same molecule?
A: 8

Q: What about the “SI (synergy index)” value [3, 22] of the same molecule?
A: 1.00

Q: And the “Qa (First Component A)” value [3, 23]?
A: 10

Q: And the “SI (synergy index)” value [3, 23]?
A: 1.00

Q: What about the “Qa (First Component A)” value [3, 24] of the same molecule?
A: 8

Q: And the “SI (synergy index)” value [3, 24]?
A: 1.00

Q: What about the “Qa (First Component A)” value [3, 25] of the same molecule?
A: 10

Q: And the “SI (synergy index)” value [3, 25]?
A: 1.00

Q: And the “Qa (First Component A)” value [3, 26]?
A: 10

Q: And the “SI (synergy index)” value [3, 26]?
A: 1.00

Q: And the “Qa (First Component A)” value [3, 27]?
A: 10

Q: What about the “SI (synergy index)” value [3, 27] of the same molecule?
A: 1.00

Q: And the “Qa (First Component A)” value [3, 28]?
A: 10

Q: And the “SI (synergy index)” value [3, 28]?
A: 1.00

Q: What about the “Qa (First Component A)” value [3, 29] of the same molecule?
A: 7.5

Q: And the “SI (synergy index)” value [3, 29]?
A: 1.00

Q: And the “Qa (First Component A)” value [3, 30]?
A: 10

Q: And the “SI (synergy index)” value [3, 30]?
A: 1.00

Q: And the “SI (synergy index)” value [3, 31]?
A: 1.00

Q: What about the “Qa (concentration of MBIT producing the end point, MIC)” value [3, 31] of the same molecule?
A: 7.5 ppm and 10 ppm and 15 ppm and 8 ppm

Q: And the “SI (synergy index)” value [3, 32]?
A: 1.00

Q: And the “Qa (concentration of MBIT producing the end point, MIC)” value [3, 32]?
A: 7.5 ppm and 10 ppm

Q: What about the “SI (synergy index)” value [3, 33] of the same molecule?
A: 1.00

Q: And the “Qa (concentration of MBIT producing the end point, MIC)” value [3, 33]?
A: 15 ppm
